Test results from ChEMBL document CHEMBL1201862, “PubChem BioAssay data set” (2004).
Values joined by “and” are separate entries in the source; they are usually repeats but may differ in a detail not shown here. Equal values may be shown once. Active and inactive are the calls of the source.

Tests used:
[1] = biological target: T1, Nuclear receptor subfamily 0 group B member 1 (Homo sapiens, UniProt P51843); test: Luminescence-based cell-based high throughput dose response assay for inhibitors of the orphan nuclear receptor subfamily 0, group B, member 1 (DAX1; NR0B1). [Related pubchem assays (depositor defined):AID504766, AID504790]; type: functional
T1 sequence (P51843 whole entry): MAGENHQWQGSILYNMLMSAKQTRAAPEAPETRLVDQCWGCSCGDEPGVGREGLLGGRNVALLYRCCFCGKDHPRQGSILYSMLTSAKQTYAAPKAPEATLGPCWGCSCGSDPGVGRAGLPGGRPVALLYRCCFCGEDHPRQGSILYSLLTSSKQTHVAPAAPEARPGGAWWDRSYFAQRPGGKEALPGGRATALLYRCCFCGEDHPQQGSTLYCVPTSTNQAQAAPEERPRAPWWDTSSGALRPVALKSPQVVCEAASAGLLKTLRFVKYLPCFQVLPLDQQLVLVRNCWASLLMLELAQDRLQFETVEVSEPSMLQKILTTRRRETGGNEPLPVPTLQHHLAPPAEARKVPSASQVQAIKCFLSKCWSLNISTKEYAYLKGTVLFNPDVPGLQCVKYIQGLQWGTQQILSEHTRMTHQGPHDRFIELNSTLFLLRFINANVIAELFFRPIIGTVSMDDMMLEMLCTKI

HEK293 [2] = test: cells; type: functional, cell-based; settings: Homo sapiens
[3] = NIH-3T3 fibroblast cytotoxicity, dose response, cytotoxicity control, cell-based, fluorescence, Alamar Blue, secondary assay (AID 2327); type: functional;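 note: NIH-3T3 mouse fibroblasts cultured with fluconazole at 8 µg/mL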
[4] = C. albicans growth with fluconazole, confirmation, fluorescence, retest (AID 2467); type: functional, cell-based
[5] = biological target: Serine/threonine-protein phosphatase (Candida dubliniensis (strain CD36 / CBS 7987 / NCPF 3949 / NRRLY-17841) (Yeast), UniProt B9W6M3); test: calcineurin pathway inhibitors in yeast reporter, dose response, S. cerevisiae, CDRE-lacZ, luminescence, secondary (AID 2388); type: functional, cell-based;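 note: yeast reporter cells carrying a calcineurin-responsive lacZ construct stimulated with calcium chloride; luminescent beta-galactosidase reporter signal in whole cells rather than isolated phosphatase activity; potency for inhibition where a drop in reporter signal means calcineurin blockade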
INS1 = test: beta cell apoptosis inhibitors, cytokine rescue, dose response, luminescence, retest (AID 449756); type: functional, cell-based; settings: Rattus norvegicus;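 note: cell death triggered by IL-1 beta plus TNF-alpha plus IFN-gamma mixture; protective hits raise ATP signal compared with cytokine alone wells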
[6] = biological target: ATP-dependent molecular chaperone HSP82 (Candida albicans (strain WO-1) (Yeast), UniProt C4YTQ8); test: loss of DOC-induced GRE-beta-galactosidase reporter signal, dose response, Hsp90 inhibitor project, S. cerevisiae, luminescence (AID 2400); type: functional, cell-based;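 note: beta-galactosidase luminescence from glucocorticoid response element reporter as proxy for Hsp90 function; inhibitor potency where signal loss means Hsp90 inhibition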
[7] = biological target: T2, Endoribonuclease toxin MazF (Escherichia coli K-12, UniProt P0AE70); test: fluorescent RNA oligo signal without MazF, dose response, counter-screen for MazEF activator project, biochemical, fluorescence, single-stranded RNase substrate (AID 588502); type: functional
T2 sequence (P0AE70 whole entry): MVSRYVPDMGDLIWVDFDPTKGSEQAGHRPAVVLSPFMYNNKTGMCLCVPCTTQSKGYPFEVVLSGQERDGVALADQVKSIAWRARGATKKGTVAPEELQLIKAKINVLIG

[8] = biological target: T2, Endoribonuclease toxin MazF; test: MazF toxin RNase activators, dose response, biochemical, fluorescence, single-stranded RNA substrate, uHTS hits (AID 588481); type: functional
[9] = biological target: T3, Dual specificity protein phosphatase 6 (Rattus norvegicus, UniProt Q64346); test: SAR analysis of inhibitors of MKP-3 - Set 2. [Related pubchem assays (depositor defined):AID1055, AID1661, AID425, AID553, AID566]; type: functional
T3 sequence (Q64346 whole entry): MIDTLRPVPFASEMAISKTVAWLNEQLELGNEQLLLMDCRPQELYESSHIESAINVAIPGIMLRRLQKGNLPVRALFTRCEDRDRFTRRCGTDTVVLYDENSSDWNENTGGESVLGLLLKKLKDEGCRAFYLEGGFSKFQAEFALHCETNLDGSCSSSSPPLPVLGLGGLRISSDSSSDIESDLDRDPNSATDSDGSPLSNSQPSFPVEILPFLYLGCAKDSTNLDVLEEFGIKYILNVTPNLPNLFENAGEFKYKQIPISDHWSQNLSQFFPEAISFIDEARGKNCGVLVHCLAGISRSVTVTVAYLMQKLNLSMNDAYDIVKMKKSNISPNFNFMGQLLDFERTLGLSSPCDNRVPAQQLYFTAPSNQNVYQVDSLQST

[10] = biological target: T4, Dual specificity protein phosphatase 3 (Homo sapiens, UniProt P51452); test: SAR VHR1 Fluorescent Assay for In Vitro dose response studies. [Related pubchem assays (depositor defined):AID1654, AID1661, AID1878, AID1992, AID2004, AID2070, AID2085]; type: functional
[11] = biological target: T5, Tyrosine-protein phosphatase non-receptor type 7 (Homo sapiens, UniProt P35236); test: SAR analysis of chemical inhibitors of HePTP using a Fluorescent assay - Set 2. [Related pubchem assays (depositor defined):AID1059, AID1077, AID1661, AID2085, AID521]; type: functional
T5 sequence (P35236 whole entry): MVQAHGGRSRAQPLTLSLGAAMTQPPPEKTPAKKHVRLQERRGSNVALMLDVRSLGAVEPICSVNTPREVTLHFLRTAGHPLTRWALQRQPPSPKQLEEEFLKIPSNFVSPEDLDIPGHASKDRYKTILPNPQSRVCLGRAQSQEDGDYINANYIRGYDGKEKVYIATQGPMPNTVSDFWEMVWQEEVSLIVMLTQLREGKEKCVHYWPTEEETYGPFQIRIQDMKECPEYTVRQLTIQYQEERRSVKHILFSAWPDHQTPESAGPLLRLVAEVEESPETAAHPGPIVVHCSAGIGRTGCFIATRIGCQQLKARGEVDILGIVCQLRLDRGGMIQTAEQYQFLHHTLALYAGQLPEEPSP

[12] = biological target: DNA dC->dU-editing enzyme APOBEC-3G (Homo sapiens, UniProt Q9HC16); test: Dose Response confirmation of small molecule APOBEC3G DNA Deaminase Inhibitors via a fluorescence-based single-stranded DNA deaminase assay. [Related pubchem assays (depositor defined):AID493012, AID493028]; type: functional
[13] = biological target: T4, Dual specificity protein phosphatase 3; test: SAR VHR1 absorbance Assay for In Vitro dose response studies. [Related pubchem assays (depositor defined):AID1654, AID1661, AID1878, AID1992, AID2004]
[14] = biological target: T5, Tyrosine-protein phosphatase non-receptor type 7; test: HePTP (PTPN7) phosphatase inhibitor potency, SAR follow-up, biochemical, set 2 (AID 449736); type: functional
[15] = biological target: T4, Dual specificity protein phosphatase 3; test: SAR VHR1 Fluorescent Assay for In Vitro dose response studies Set 2. [Related pubchem assays (depositor defined):AID1654, AID1661, AID1878]; type: functional
[16] = biological target: DNA dC->dU-editing enzyme APOBEC-3A (Homo sapiens, UniProt P31941); test: APOBEC3A DNA deaminase inhibitors, dose response, biochemical (AID 504722); type: functional
[17] = biological target: T5, Tyrosine-protein phosphatase non-receptor type 7; test: redox-dependent HePTP inhibition, mechanism study, biochemical, fluorescence (AID 2068); type: functional
[18] = biological target: T3, Dual specificity protein phosphatase 6; type: functional
[19] = inhibitors of HIV Env-driven cell fusion, dose response, cherry-pick (AID 652057); type: functional, cell-based
[20] = inhibitors of clade B AD8 Env fusion, dose response, cell-based, cherry-pick (AID 652062); type: functional;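 note: luciferase signal from cell-cell fusion driven by HIV-1 clade B AD8 Env; potency is for inhibitors of fusion seen as a drop in luminescence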
[21] = off-target signal loss in HeLa-CEM21 co-culture – HeLa F-luc CTL cells, cherry-picked, counter-screen for HIV-1 Env fusion inhibitor project, dose response (AID 652040); type: functional, cell-based;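 note: potency for signal decrease marking cytotoxic or nonspecific inhibition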
[22] = CEM21 lymphoblast cell cytotoxicity, dose response, cytotoxicity control for viral fusion inhibitor project, CellTiter-Glo luminescence, cherry-picked (AID 652042); type: functional, cell-based;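 note: potency for signal decrease meaning cytotoxicity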
[23] = ZM109 Env clade C HIV-1 fusion inhibitors, dose response, HeLa effector, CEM target cells, luciferase, cherry-pick (AID 652058); type: functional, cell-based
HEK293 [24] = test: cells; type: functional, cell-based; settings: Homo sapiens; remark: listed apart in the source
[25] = biological target: T6, Nucleotide-binding oligomerization domain-containing protein 1 (Homo sapiens, UniProt Q9Y239); test: NOD1 signaling inhibitors, SAR follow-up, revised (AID 2333); type: functional
T6 sequence (Q9Y239 whole entry): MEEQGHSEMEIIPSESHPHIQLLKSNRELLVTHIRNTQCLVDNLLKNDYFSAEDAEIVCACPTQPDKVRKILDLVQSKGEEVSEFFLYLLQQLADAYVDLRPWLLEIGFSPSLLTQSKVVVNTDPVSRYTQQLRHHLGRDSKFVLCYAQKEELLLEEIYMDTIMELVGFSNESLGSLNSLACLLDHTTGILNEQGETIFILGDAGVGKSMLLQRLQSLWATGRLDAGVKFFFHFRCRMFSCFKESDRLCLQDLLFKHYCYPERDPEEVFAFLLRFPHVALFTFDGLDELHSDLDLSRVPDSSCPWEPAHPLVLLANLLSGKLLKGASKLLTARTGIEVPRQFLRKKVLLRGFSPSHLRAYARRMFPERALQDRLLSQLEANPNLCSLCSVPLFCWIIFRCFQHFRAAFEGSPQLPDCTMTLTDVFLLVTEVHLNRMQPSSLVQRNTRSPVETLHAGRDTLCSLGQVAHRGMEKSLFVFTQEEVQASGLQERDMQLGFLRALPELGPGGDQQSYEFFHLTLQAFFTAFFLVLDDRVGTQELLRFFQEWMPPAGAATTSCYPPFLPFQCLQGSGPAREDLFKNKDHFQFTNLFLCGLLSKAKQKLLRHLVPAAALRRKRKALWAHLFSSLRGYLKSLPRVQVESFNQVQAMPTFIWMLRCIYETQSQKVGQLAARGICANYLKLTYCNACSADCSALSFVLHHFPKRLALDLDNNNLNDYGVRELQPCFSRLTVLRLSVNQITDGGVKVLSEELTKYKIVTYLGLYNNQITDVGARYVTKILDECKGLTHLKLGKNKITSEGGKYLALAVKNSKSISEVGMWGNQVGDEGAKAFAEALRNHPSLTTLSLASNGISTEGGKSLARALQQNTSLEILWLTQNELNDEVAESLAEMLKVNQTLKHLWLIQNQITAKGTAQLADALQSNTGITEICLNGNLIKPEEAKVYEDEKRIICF

HEK293 [26] = test: cells; settings: Homo sapiens
HEK293 [27] = test: cells; type: functional, cell-based; settings: Homo sapiens; remark: listed apart in the source
HEK293 [28] = test: NOD2 signaling inhibitors in MDP-stimulated cells, cell-based, uHTS, luminescence (AID 2001); type: functional; settings: Homo sapiens
HEK293 [29] = test: NOD1 signaling inhibitors, primary screen, cell-based, luminescence, uHTS (AID 1578); type: functional; settings: Homo sapiens
Tumor necrosis factor = Tumor necrosis factor (Homo sapiens, UniProt P01375); test: TNFa-triggered NF-kB activation inhibitors, SAR follow-up, cell-based, revised (AID 2337); type: functional
[30] = biological target: T7, Polyadenylate-binding protein 1 (Homo sapiens, UniProt P11940); test: PABP1 MLLE–PAM2 interaction inhibitors, dose response, miRNA deadenylation inhibitor project, biochemical, fluorescence polarization, Cy5-PAM2 peptide, secondary (AID 602260); type: functional; settings: read-out: IC50_Mean
[31] = biological target: T7, Polyadenylate-binding protein 1; test: PABP1 MLLE–PAM2 binding inhibitor potency, dose response, biochemical, fluorescence polarization, FITC-PAM2 peptide (AID 602259); type: functional; settings: read-out: IC50_Mean

T4 sequence (P51452 whole entry): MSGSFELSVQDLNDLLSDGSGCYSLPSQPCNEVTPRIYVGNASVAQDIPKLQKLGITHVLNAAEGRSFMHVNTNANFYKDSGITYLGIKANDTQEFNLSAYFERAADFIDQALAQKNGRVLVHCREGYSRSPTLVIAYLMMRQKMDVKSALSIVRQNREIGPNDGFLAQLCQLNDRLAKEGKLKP
ATP-dependent molecular chaperone HSP82, sequence (C4YTQ8 whole entry): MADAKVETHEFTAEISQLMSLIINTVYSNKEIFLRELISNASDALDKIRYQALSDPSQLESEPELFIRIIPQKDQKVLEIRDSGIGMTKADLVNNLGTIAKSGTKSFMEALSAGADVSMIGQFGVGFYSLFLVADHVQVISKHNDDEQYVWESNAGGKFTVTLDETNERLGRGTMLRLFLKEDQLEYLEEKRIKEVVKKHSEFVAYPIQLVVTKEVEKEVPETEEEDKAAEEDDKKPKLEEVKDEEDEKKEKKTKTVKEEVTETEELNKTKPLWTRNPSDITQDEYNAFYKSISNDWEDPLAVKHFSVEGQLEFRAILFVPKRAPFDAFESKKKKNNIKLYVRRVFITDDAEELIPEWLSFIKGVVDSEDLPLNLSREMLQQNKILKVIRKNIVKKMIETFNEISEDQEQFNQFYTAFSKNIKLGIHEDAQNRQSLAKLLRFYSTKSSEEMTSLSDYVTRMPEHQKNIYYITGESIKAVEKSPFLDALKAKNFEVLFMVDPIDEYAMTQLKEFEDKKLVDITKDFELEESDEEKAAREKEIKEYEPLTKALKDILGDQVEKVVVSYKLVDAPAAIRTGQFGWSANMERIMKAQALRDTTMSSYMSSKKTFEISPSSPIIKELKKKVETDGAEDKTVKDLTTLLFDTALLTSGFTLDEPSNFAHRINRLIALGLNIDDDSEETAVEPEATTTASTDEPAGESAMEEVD
Serine/threonine-protein phosphatase, sequence (B9W6M3 whole entry): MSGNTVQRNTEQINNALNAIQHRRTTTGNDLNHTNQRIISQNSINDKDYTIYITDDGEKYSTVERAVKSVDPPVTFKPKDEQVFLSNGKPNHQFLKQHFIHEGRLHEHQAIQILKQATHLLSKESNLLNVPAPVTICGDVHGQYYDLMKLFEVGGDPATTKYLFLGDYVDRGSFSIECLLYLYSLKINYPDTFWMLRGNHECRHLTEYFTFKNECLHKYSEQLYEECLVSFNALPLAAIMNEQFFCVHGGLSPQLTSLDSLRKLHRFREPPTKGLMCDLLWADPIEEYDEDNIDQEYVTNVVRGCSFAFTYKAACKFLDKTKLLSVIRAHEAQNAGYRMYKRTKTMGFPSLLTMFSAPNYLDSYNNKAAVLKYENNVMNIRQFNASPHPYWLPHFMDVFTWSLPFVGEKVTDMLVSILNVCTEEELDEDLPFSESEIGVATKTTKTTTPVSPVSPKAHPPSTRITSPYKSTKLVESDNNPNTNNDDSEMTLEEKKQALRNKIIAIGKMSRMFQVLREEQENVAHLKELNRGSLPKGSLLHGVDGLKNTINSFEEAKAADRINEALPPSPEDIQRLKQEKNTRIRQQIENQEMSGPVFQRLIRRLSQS
T7 sequence (P11940 whole entry): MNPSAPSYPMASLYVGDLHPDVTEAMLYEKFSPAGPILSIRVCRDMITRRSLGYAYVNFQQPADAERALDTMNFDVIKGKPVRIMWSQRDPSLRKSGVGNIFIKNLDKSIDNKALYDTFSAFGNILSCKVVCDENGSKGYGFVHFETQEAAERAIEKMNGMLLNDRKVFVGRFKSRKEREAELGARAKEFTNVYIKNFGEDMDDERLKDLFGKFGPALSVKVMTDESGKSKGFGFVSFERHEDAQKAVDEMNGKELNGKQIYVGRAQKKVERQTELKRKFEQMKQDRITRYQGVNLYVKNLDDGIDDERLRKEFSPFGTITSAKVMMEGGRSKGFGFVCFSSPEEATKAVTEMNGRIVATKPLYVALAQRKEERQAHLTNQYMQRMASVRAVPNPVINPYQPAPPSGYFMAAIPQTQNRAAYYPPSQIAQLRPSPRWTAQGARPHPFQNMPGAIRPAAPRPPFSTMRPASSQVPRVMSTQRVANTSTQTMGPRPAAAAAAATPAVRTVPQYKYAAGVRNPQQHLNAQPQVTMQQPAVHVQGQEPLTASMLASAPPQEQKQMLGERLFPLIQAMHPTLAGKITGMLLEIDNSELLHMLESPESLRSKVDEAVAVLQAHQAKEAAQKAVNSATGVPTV
DNA dC->dU-editing enzyme APOBEC-3A, sequence (P31941 whole entry): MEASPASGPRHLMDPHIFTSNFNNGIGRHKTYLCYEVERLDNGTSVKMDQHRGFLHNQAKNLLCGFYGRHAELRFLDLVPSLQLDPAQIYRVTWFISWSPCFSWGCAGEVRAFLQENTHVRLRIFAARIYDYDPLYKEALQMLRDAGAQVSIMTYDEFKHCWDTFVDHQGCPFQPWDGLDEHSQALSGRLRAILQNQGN
DNA dC->dU-editing enzyme APOBEC-3G, sequence (Q9HC16 whole entry): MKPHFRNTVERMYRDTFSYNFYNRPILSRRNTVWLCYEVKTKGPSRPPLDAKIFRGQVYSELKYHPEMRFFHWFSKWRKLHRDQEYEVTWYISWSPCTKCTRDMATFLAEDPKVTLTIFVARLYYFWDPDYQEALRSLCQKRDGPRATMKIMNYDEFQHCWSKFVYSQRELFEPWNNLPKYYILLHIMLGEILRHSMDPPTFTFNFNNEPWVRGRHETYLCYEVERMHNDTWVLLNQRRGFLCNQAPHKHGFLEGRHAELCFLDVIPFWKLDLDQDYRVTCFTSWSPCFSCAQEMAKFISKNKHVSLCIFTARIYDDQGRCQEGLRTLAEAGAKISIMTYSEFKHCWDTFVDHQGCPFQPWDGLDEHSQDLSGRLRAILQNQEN
Tumor necrosis factor, sequence (P01375 whole entry): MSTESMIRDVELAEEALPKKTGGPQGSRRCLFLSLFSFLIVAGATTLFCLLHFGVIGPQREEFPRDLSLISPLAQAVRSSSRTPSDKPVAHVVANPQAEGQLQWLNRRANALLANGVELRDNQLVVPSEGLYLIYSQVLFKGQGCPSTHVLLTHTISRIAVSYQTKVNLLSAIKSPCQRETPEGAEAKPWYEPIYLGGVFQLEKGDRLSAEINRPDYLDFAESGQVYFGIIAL

CCSc1nnc(NC(=O)C2CCCN(S(=O)(=O)c3c[nH]cn3)C2)s1 (stereo unspecified)
IC50 [1]: > 67.5 µM (inactive) | IC50 (HEK293 [2]): > 67.5 µM (inactive)

Cc1ccc(NC(=O)c2ccccc2NS(=O)(=O)c2ccc(Cl)s2)cc1
EC50 [3]: 20.5 µM (active) | EC50 [4]: 215 nM (active) | EC50 [5]: > 180 µM (inactive) | AC50 (INS1): 4.46 µM (active) | EC50 [6]: 7.91 µM (active)

COC(=O)CSc1nc2ccc(C)cc2cc1C#N
EC50 [7]: > 99 µM (inactive) | EC50 [8]: > 99 µM (inactive)

Cc1cccc(-n2c(N)c(C(=O)N3CCN(C)CC3)sc2=S)c1
IC50 [9]: > 100 µM (inactive) | IC50 [10]: > 99 µM (inactive) | IC50 [11]: 4.7 µM (active) | IC50 [12]: 12.2 µM (active) | IC50 [13]: 3.32 µM (active) | IC50 [14]: 3.6 µM (active) and 8.47 µM (active) and > 100 µM (inactive) | IC50 [15]: 960 nM (active) | IC50 [16]: > 100 µM (inactive) | IC50 [17]: 108 nM (active) | IC50 [18]: > 99 µM (inactive)

C(=C\c1ccccc1)/CN1CCN(c2ncnc3c2oc2ccccc23)CC1
AC50 [19]: 1.98 µM (active) | EC50 [3]: > 160 µM (inconclusive) | AC50 [20]: 9.31 µM (active) | EC50 [4]: 41 nM (active) | EC50 [5]: > 180 µM (inactive) | AC50 [21]: 25.9 µM (active) | AC50 [22]: 65.4 µM (active) | AC50 [23]: 570 nM (active) | EC50 [6]: > 160 µM (inactive)

Cc1cc(NC(=O)CSc2nc(-c3ccccc3Cl)nc3c2c(=O)n(C)c(=O)n3C)no1
EC50 [7]: > 99 µM (inactive) | EC50 [8]: > 99 µM (inactive)

c1ccc(-c2csc3ncnc(NCc4ccccn4)c23)cc1
IC50 (HEK293 [24]): 16.3 µM (active) | IC50 [25]: 3.2 µM (active) | IC50 (HEK293 [26]): 11.5 µM (active) | IC50 (HEK293 [27]): 6.34 µM (active) | IC50 (HEK293 [28]): 7.16 µM (active) | EC50 (HEK293 [29]): 3.17 µM (active) | IC50 (Tumor necrosis factor): 4.23 µM (active)

Oc1c(/C=N/Cc2ccccc2)sc2ccccc12
IC50 [1]: > 67.5 µM (inactive) | IC50 [30]: > 66 µM (inactive) | IC50 [31]: > 66 µM (inactive) | IC50 (HEK293 [2]): > 22.5 µM (inactive)
